From patent US7148026B2, “Dog melanin-concentrating hormone receptor” (Merck & Co., Inc., priority 2000, dated 2006)

Test system: dog MCH receptor
Experiment: Aequorin bioluminescence assay in 293-AEQ17 cells transfected with dog MCH receptor
Assay type: cell-based
Conditions: 293-AEQ17 cells transfected with dog MCH receptor plasmid; fractional response of aequorin luminescence; read-out: EC50 value for activation of the dog MCH receptor
Procedure: Measurement of MCH receptor expression in the aequorin-expressing stable reporter cell line 293-AEQ17 (Button et al., 1993, Cell Calcium, 14, 663–671) was performed using a Luminoskan RT luminometer (Labsystems Inc., Gaithersburg, Md.) controlled by custom software written for a Macintosh PowerPC 6100. 293-AEQ17 cells (8×10^5 cells plated 18 hours before transfection in a T75 flask) were transfected with 22 μg of dog MCH receptor plasmid DNA: 264 μg lipofectamine.
Following approximately 40 hours of expression the apo-aequorin in the cells was charged for 4 hours with coelenterazine (10 μM) under reducing conditions (300 μM reduced glutathione) in ECB buffer (140 mM NaCl, 20 mM KCl, 20 mM HEPES-NaOH [pH=7.4], 5 mM glucose, 1 mM MgCl2, 1 mM CaCl2, 0.1 mg/ml bovine serum albumin). […] 100 μl of cell suspension (corresponding to 5×10^4 cells) was then injected into the test plate containing MCH, and the integrated light emission was recorded over 30 seconds, in 0.5 second units. 20 μL of lysis buffer (0.1% final Triton X-100 concentration) was then injected and the integrated light emission recorded over 10 seconds, in 0.5 second units.
The “fractional response” values for each well were calculated by taking the ratio of the integrated response to the initial challenge to the total integrated luminescence including the Triton X-100 lysis response. […]

Sequence of dog MCH receptor (as listed by the source): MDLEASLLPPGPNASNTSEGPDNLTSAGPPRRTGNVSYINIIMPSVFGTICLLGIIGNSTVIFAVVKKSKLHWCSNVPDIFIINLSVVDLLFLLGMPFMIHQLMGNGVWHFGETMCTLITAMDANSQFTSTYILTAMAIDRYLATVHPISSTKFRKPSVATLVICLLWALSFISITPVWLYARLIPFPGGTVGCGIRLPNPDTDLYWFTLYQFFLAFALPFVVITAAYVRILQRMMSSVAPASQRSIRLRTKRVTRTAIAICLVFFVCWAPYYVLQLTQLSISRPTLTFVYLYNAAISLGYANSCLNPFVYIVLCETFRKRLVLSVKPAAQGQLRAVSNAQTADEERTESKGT

EC50: ~30 nM
Substance: Melanin-concentrating hormone [MCH]
